Usually pKi stands for the negative decadic logarithm of the Ki, by convention in mol/L. The pIC50 is the negative decadic logarithm of the IC50, by convention in mol/L.

pIC50, pKd, pKi: −log10 of the molar value.

These results are taken from patent publication US7919624B2, “VR1 vanilloid receptor antagonists with a iononic substructure” (Pharmeste S.R.L., priority 2006, dated 2011).

Experiment [1] deals with T1, TRPV1 expressed in rat spinal cord (Rattus norvegicus, UniProt O35433).
T1 construct: the spinal cord was removed and disrupted using a Polytron tissue homogenizer; from tissue; host or cells: spinal cord membranes of male Sprague-Dawley rats
T1 sequence (O35433 whole entry): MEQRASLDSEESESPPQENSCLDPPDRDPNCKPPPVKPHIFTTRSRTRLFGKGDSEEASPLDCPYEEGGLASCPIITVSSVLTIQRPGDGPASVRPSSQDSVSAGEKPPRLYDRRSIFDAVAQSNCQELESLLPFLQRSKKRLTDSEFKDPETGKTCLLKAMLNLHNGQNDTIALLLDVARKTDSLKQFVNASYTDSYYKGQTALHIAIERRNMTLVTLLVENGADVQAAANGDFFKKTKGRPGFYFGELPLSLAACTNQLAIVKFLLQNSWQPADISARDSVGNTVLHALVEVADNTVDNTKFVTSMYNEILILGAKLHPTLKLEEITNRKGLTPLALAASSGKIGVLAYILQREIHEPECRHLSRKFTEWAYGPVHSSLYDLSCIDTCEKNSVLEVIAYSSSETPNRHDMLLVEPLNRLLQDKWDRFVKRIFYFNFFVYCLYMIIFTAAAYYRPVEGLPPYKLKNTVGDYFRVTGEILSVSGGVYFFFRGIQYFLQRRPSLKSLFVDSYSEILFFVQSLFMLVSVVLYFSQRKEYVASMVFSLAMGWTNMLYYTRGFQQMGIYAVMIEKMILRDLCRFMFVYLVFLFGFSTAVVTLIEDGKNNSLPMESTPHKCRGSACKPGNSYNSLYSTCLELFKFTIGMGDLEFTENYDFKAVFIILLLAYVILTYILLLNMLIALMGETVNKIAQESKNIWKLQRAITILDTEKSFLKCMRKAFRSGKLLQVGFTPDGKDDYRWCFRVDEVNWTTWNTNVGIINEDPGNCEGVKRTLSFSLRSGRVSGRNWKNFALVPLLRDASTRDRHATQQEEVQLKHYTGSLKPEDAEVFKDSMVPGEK
As to the kind of experiment: Radioligand binding assay, [3H]-RTX, rat spinal cord membranes. Particulars: 37° C. 60 min, range in brackets; for pKi: [3H]RTX 0.4 nM, read-out: Ki value, competition binding of [3H]-RTX. On the procedure:
Radioligand Binding Assay
Male Sprague-Dawley rats with body weight between 250 and 350 g at the time for testing were used. For binding assays rats were sacrificed by decapitation under anesthesia and the spinal cord was removed and disrupted using a Polytron tissue homogenizer in ice cold buffer containing 5 mM KCl, 5.8 mM NaCl, 0.75 mM CaCl2, 2 mM MgCl2, 320 mM sucrose, 10 mM Hepes, pH 8.6.^5 The homogenized tissue was centrifuged at 1000×g for 10 min at 4° C. and the supernatant was centrifuged again at 35000×g for 30 min at 4° C. (Beckman Avanti J25). The pellet was resuspended in the same buffer described above and used in binding experiments. In saturation experiments, 150 μg protein/sample from membrane suspensions were incubated with [^3H]-resiniferatoxin ([^3H]-RTX) (0.003-3 nM) in the assay buffer containing 0.25 mg/ml fatty acid-free bovine serum albumin at 37° C. for 60 min. In competition experiments, the membranes were incubated at 37° C. for 60 min with [^3H]RTX (0.4 nM) and increasing concentrations of the examined compounds in the range from 0.1 nM to 3 μM. Non-specific binding was defined in the presence of 1 μM RTX. After incubation, the reaction mixture was cooled at 0° C. and incubated with bovine α1-acid glycoprotein (200 μg per tube) for 15 min to reduce non-specific RTX binding. Membrane-bound RTX was separated from free RTX through centrifugation of the samples at 18500×g for 15 min. The tip of the microcentrifuge tube containing the pellet was cut off and radioactivity was determined by scintillation counting (Packard 2500 TR). Protein concentration was determined according to a Bio-Rad method with bovine serum albumin as reference standard (Bradford, 1976). Saturation and competition studies were analysed with the program Ligand.^6

Experiment [2] deals with T2, TRPV1 expressing neurons (rat trigeminal neurons) (Rattus norvegicus, UniProt O35433).
T2 construct: Two-days old Newborn rats were terminally anaesthetized and decapitated; Trigeminal ganglia were removed; endogenous in cells; host or cells: primary cultured trigeminal ganglion neurons from newborn Sprague-Dawley rats
T2 sequence (O35433 whole entry): as above
As to the kind of experiment: Ca2+ fluorescence measurements in cultured rat trigeminal ganglia. The class given is cell-based. Conditions: 0.1 μM capsaicin, mean and 95% fiducial limits, read-out: IC50 inhibiting capsaicin-evoked [Ca2+]i mobilization. On the procedure: Ca^2+ Fluorescence Measurements in Cultured rat Trigeminal Ganglia
Two-days old Newborn rats were terminally anaesthetized and decapitated. Trigeminal ganglia were removed and rapidly placed in a cold phosphate buffered solution (PBS) before being transferred to collagenase/dispase (1 mg/ml dissolved in Ca^2+- Mg^2+-free PBS) for 35 min at 37° C.^7 After the enzymatic treatment the ganglia were rinsed three times with Ca^2+- Mg^2+-free PBS and then placed in 2 ml of cold DMEM supplemented with 10% fetal bovine serum (FBS, heat inactivated), 2 mM L-glutamine, 100 μ/ml penicillin and 100 μg/ml streptomycin. The ganglia were dissociated into single cells by several passages through a series of syringe needles (23G down to 25G). Finally, the medium and the ganglia cells were sieved through a 40 μm filter to remove debris and topped up with 8 ml of DMEM medium and centrifuged (200×g for 5 min). The final cell pellet was re-suspended in DMEM medium [supplemented with 100 ng/ml mouse Nerve Growth Factor (mouse-NGF-7S) and cytosine-β-D-arabinofuranoside free base (ARA-C) 2.5 μM]. Cells were plated on poly-L-lysine-(8.3 μM) and laminin-(5 μM) coated 25 mm glass cover slips and kept for 5 to 8 days at 37° C. in a humidified incubator gassed with 5% CO2 and air. Plated neurons were loaded with Fura-2-AM-ester (3 μM) in Ca^2+ buffer solution of the following composition (mM): CaCl2 1.4, KCl 5.4, MgSO4 0.4, NaCl 135, D-glucose 5, HEPES 10 with BSA (0.1%), at pH 7.4, for 40 min at 37° C. The plated neurons were then washed twice with the Ca^2+ buffer solution and transferred to a chamber on the stage of Nikon eclipse TE300 microscope. Fura-2-AM-ester was excited at […] to indicate relative [Ca^2+]i changes by the F340/F380 ratio recorded with a dynamic image analysis system (Laboratory Automation 2.0, RCS, Florence, Italy). After transferring the plated neurons to the chamber, they were allowed (at least 10 min) to attain a stable fluorescence before beginning the experiment. A calibration curve was performed using buffer containing Fura-2-AM-ester and determinant concentrations of free Ca^2+.
The results are expressed as mean and 95% fiducial limits.

For experiment [3], the system named is capsaicin-induced tactile allodynia. As to the kind of experiment: Capsaicin-induced secondary allodynia in rat. The class given is in vivo. Conditions: 10 mg/kg orally 2 hours prior to capsaicin (20 nmols/50 μl/paw), 90 min after capsaicin challenge. On the procedure: Capsaicin-induced Secondary Allodynia in Rat
Capsaicin (20 nmols/50 μl/paw) was injected in the plantar surface of the glabrous skin of the right paw of rats anesthetized with diethyl ether (Chaplan et al., 1994). Compound Id was orally administered (10 mg/kg) 2 hours prior to capsaicin injection. Tactile allodynia was evaluated 90 min after capsaicin challenge.

On to `CC1=C(/C=C/C(=O)Nc2cccc3cnccc23)C(C)(C)CCC1Oc1cccc(F)c1` (stereo not shown) [If, (2E)-3-(3-(3-fluorophenoxy)-2,6,6-trimethylcyclohex-1-enyl)-N-(isoquinolin-5-yl)acrylamide], for which the pKi in experiment [1] was 8.09. In addition, in experiment [2], the pIC50 is 9.42.
On to `COC1CCC(C)(C)C(/C=C/C(=O)Nc2cccc3cnccc23)=C1C` (stereo not shown) [Ib, (2E)-N-(isoquinolin-5-yl)-3-(3-methoxy-2,6,6-trimethylcyclohex-1-enyl)acrylamide], for which the pKi in experiment [1] was 7.58. Also, the pIC50 in experiment [2] was 7.55.
For `CC1=C(/C=C/C(=O)Nc2cccc3cnccc23)C(C)(C)CCC1Oc1ccc(F)c(F)c1` (stereo not shown) [Ig, (2E)-3-(3-(3,4-difluorophenoxy)-2,6,6-trimethylcyclohex-1-enyl)-N-(isoquinolin-5-yl)acrylamide] the same measures were 7.99 and 9.19.
Regarding `CC1=C(/C=C/C(=O)Nc2cccc3cnccc23)C(C)(C)CCC1Oc1ccc(Cl)cc1` (stereo not shown) [Compound Id, (2E)-3-(3-(4-chlorophenoxy)-2,6,6-trimethylcyclohex-1-enyl)-N-(isoquinolin-5-yl)acrylamide], in experiment [1], the pKi was 7.57. Besides, in experiment [2], the pIC50 was 7.74. Besides, the “preventive effect against the pro-allodinic effect of capsaicin” value in experiment [3] was found to be 54%.
Regarding `C=C(C)[C@]12C[C@@H](C)[C@@]34O[C@](Cc5ccccc5)(O[C@@H]1[C@@H]3C=C(COC(=O)Cc1ccc(O)c(OC)c1)C[C@]1(O)C(=O)C(C)=C[C@@H]41)O2` [[^3H]-RTX, [^3H]-resiniferatoxin, reference compound], the pKd in experiment [1] ([3H]-RTX 0.003-3 nM, read-out: KD value, saturation curve of [3H]-RTX) is 9.68.
In the case of `CC1=C(/C=C/C(=O)Nc2cccc3cnccc23)C(C)(C)CCC1Oc1ccccc1` (stereo not shown) [Ic, (2E)-N-(isoquinolin-5-yl)-3-(2,6,6-trimethyl-3-phenoxycyclohex-1-enyl)acrylamide], the pKi in experiment [1] is 8.31. The pIC50 in experiment [2] is 8.67.
Regarding `CC1=C(/C=C/C(=O)Nc2cccc3cnccc23)C(C)(C)CCC1` [Ia, (2E)-N-(isoquinolin-5-yl)-3-(2,6,6-trimethylcyclohex-1-enyl)acrylamide], the pKi in experiment [1] is 7.18. Further, in experiment [2], the pIC50 is 7.36.
Taken in the same sequence, the figures for `CC1=C(/C=C/C(=O)Nc2cccc3cnccc23)C(C)(C)CCC1Oc1ccc(F)cc1` (stereo not shown) [Ie, (2E)-3-(3-(4-fluorophenoxy)-2,6,6-trimethylcyclohex-1-enyl)-N-(isoquinolin-5-yl)acrylamide] were 7.83 and 8.28.
